The data set in a line: gradient 5% acetonitrile 3 min, to 50% in 2 min, to 85% in 15 min, held 3 min, 100 µL/min. Conditions: column: Zorbax Extend-C18 2.1 x 50 mm; eluents: water / acetonitrile, 0.1% formic acid. An outline of the steps:
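The system's dead and dwell volumes were 40 μL and 900 μL, with a Zorbax Extend-C18 column (2.1 × 50 mm, 1.8 μm) run at 100 μL/min in water and acetonitrile containing 0.1% formic acid each. Pure standards were analyzed in mixtures of ~100 molecules by HPLC–quadrupole time-of-flight mass spectrometry in positive and negative ionization mode. Retention time was assigned from computationally picked, manually inspected adduct peaks.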
For the compound `CCC1Oc2ccc(S(=O)(=O)N3CCC(C(=O)Nc4ccc(C)c(Cl)c4)CC3)cc2NC1=O` (centres undefined), the RP-LC retention time amounted to 1020 s. `CCN(CC)C(=O)c1ccc2c(c1)N(CC(=O)NC1CCCCCC1)C(=O)CO2` returned an RP-LC retention time of 768 s. For `CC(C)CCC(=O)N1CCN(c2nc3c(s2)CN(C)CC3)CC1`, the RP-LC retention time was 597 s. For the compound `CCOC(=O)C1CCN(c2nc(=O)[nH]c3ccccc23)CC1`, the RP-LC retention time turned out to be 646 s. As for `O=C(NCC1CC1)c1c(O)c2cccnc2n(Cc2ccccc2)c1=O`, the RP-LC retention time is 1310 s. In the case of `CCOc1nc2ccccc2nc1N1CCCC(C(=O)Nc2ccc(OC)c(Cl)c2)C1` (centres undefined) it was 1240 s; in that of `NC(=O)[C@@H]1C[C@@H](O)CN1C1CCN(C(=O)CC2=CCCCC2)CC1`, 575 s; in that of `CCCn1c(=O)sc2cc(S(=O)(=O)N3CCC(C(=O)N4CCOCC4)CC3)ccc21`, 770 s.

The compound `CC(C)NC(=O)N1CCCC(c2cccc(C(=O)NCCN3CCCCC3)c2)C1` (centres undefined) came in with an RP-LC retention time of 608 s. Compound `CC1CCN(S(=O)(=O)c2ccc(-c3nnc(C(=O)NCCCN4CCCC4)o3)cc2)CC1` showed an RP-LC retention time of 689 s. As for `COC(=O)C(Cc1ccccc1)NC(=O)C(NC(=O)OCc1ccccc1)C(C)C` (centres undefined), the RP-LC retention time was determined as 894 s. In the case of `Cc1cccc(N2CCN(C(=O)CCC3CCCN(C(=O)Nc4ccccc4)C3)CC2)c1C` (centres undefined) it was 1080 s. `O=C(c1ccncc1)N1CCCn2nc(-c3cccs3)cc2C1` gave an RP-LC retention time of 642 s. The same measure for `O=C(C1CC1)N1[C@H]2CC[C@@H]1c1cnc(-c3ccc(F)cc3)nc1C2`: 870 s. Compound `O=C(Cn1nc(C(=O)N2CCCC2)c2ccccc21)Nc1cccc(Br)c1` showed an RP-LC retention time of 903 s. In the case of `COc1cccc(S(=O)(=O)N2C[C@@H](F)C[C@H]2C(=O)N2CCOCC2)c1` it was 676 s; in that of `CC1CCN(C(=O)C2c3ccccc3CCN2CC(=O)NCC2CCCCC2)CC1` (centres undefined), 1070 s. For the compound `Cc1ccc(N2CCN(C(=O)CN3CCN(Cc4cccc(Cl)c4)C3=O)CC2)cc1`, the RP-LC retention time was 905 s. As for `CCCNC(=O)CCc1nc2ccccc2n(CC(=O)Nc2ccc(OCC)cc2)c1=O`, the RP-LC retention time was 788 s. The same measure for `CC1CCN(C(=O)c2cc3c(s2)CCC(C(=O)NCc2cccnc2)C3)CC1` (centres undefined): 639 s; for `CCN1C(=O)c2cccnc2Sc2cc(NC(=O)c3cccc(Cl)c3)ccc21`: 912 s. For `COC(=O)CNC(=O)c1cc2c(=O)n(CC(C)C)c3ccccc3n2n1`, the RP-LC retention time amounted to 807 s.

For the compound `Cc1cc2nn(CC(=O)Nc3ccc(F)c(F)c3)c(=O)n2c(Nc2ccc(F)cc2)n1`, the RP-LC retention time is 1020 s. As to `COc1cc(NC(=O)[C@@H]2[C@H](c3cc(OC)c(OC)c(OC)c3)c3cc4c(cc3[C@H](O)[C@H]2CO)OCO4)cc(OC)c1`, the RP-LC retention time stood at 767 s. `COc1ccc(CC(=O)N2C[C@@H]3C[C@H](NS(C)(=O)=O)[C@H]2C3)cc1Cl` came in with an RP-LC retention time of 651 s.

As for `O=C(CCc1c[nH]c2ccccc12)N1CCN(C(=O)c2cc(-c3cccnc3)n[nH]2)CC1`, the RP-LC retention time stood at 814 s.

Regarding `O=C(CC1C=Cc2ccccc2N1C(=O)c1ccccc1)c1ccccc1` (centres undefined), the RP-LC retention time was found to be 1270 s.

Turning to `COc1ccc(-c2nc(-c3cn(Cc4ccccc4)nn3)no2)cc1OC`, the RP-LC retention time amounted to 892 s. `Cn1ccc(CN2CCN(Cc3cccc(F)c3)CC2)cc1=O` registered an RP-LC retention time of 558 s. The same measure for `CC(C)Cc1ccc(S(=O)(=O)N(C)C2CCc3nn(CC4CC4)c(=O)n3CC2)cc1` (centres undefined): 914 s; for `O=C(Nc1cccc(Cl)c1F)C1CC(=O)N(c2ccc3c(c2)CCN3C(=O)C2CC2)C1` (centres undefined): 831 s. In the case of `O=C(CSc1cc(N2CCN(c3ccccc3F)CC2)ncn1)NCCC1=CCCCC1` it was 1190 s; in that of `CCOC(=O)c1cccc(NC2=NS(=O)(=O)c3ccccc32)c1`, 839 s. `COc1ccc(OC)c(NC(=O)CSc2cc(N3CCN(c4ccccc4F)CC3)ncn2)c1` returned an RP-LC retention time of 1180 s.

The compound `Cc1cccc(N2CC(C(=O)NC3CC3)CC2=O)c1` (centres undefined) returned an RP-LC retention time of 671 s. Consider `CC(=O)c1cccc(NC(=O)CN2C(=O)NC3(CCCCC3)C2=O)c1`, for which the RP-LC retention time turned out to be 711 s. With `COCC1(O)CCOC2(CCN(Cc3ccc(C#N)cc3)CC2)C1` (centres undefined), the RP-LC retention time is 578 s. Consider `COCC(=O)N1CCCCCCNC(=O)[C@@H]2CCCC[C@@H]21`, for which the RP-LC retention time turned out to be 659 s.

`COCCn1c(CC2CCN(C(=O)Cc3ccsc3)C2)nc2cccnc21` (centres undefined) registered an RP-LC retention time of 599 s. The compound `CCn1cc(S(=O)(=O)N2CCC(Cc3nc(-c4ccncc4)n[nH]3)C2)cn1` (centres undefined) came in with an RP-LC retention time of 578 s.

In the case of `COc1ccccc1CNC1CCN(c2ccc(C(=O)NC3CC3)cn2)C1` (centres undefined), the RP-LC retention time was 552 s. In turn, `CC1CCCN(c2ccn3c(=O)n(CC(=O)NCc4ccc(Cl)cc4)nc3n2)C1` (centres undefined) came in with an RP-LC retention time of 821 s. The compound `CCCN(CC1CCOC1)C(=O)Nc1cc(Cl)ccc1OC` (centres undefined) came in with an RP-LC retention time of 961 s. Compound `CN(C(=O)Cn1c(CCO)nc2ccccc21)c1ccccc1` yielded an RP-LC retention time of 554 s. In the case of `CC(Cc1ccco1)NC(=O)c1nc(Nc2ccc(F)cc2)c2ccccc2n1` (centres undefined), the RP-LC retention time came out at 855 s. The compound `CC(C)NC(=O)c1c(OCC2CC2)cc(=O)n2c1CCCCC2` yielded an RP-LC retention time of 673 s. In the case of `COc1ccc(OC)c(CNC(=O)COc2ccc(NC(=O)C3CC3)cn2)c1`, the RP-LC retention time is 712 s.

Compound `O=C(Cn1ccn2nc(-c3ccccc3)c(CO)c2c1=O)Nc1ccccc1Cl` returned an RP-LC retention time of 808 s. `CC(=O)Nc1ccc(S(=O)(=O)N2CCC(CC(=O)N3CCN(c4ccccn4)CC3)CC2)cc1`: the RP-LC retention time was 581 s. The same measure for `CCC(=O)Nc1ccc(CCc2nc3ccc(C(=O)NCCC(C)C)cc3[nH]2)cc1`: 645 s; for `CSc1ncccc1C(=O)Nc1ccc(CC(=O)NC(C)(C)CO)cc1`: 633 s; for `O=c1ccc(-c2nc(-c3ccc(F)cc3)no2)nn1Cc1cccc(F)c1`: 1090 s. In turn, `CCOC(=O)c1c(C)c(C(=O)CN(CC2CCCO2)C(=O)c2cccc(F)c2)c(C)n1C` (centres undefined) had an RP-LC retention time of 920 s. Regarding `CCOC(=O)c1c(C)[nH]c(CCC(=O)NC(C)c2ccc3c(c2)OCCO3)c1C` (centres undefined), the RP-LC retention time was 854 s. `CCc1nn2c(N3CCN(c4ccccn4)CC3)cc(C)nc2c1-c1ccccc1`: the RP-LC retention time was 670 s. The compound `Nc1cc(=O)nc(SCC(=O)Nc2nc(-c3ccccc3)cs2)n1-c1ccccc1` gave an RP-LC retention time of 727 s. The same measure for `Cn1nc(C(=O)N2CCCC2)c2c1CCN(C(=O)Nc1cccc(Br)c1)C2`: 804 s; for `O=C(c1ccc2c(c1)N(Cc1ccc(F)cc1)C(=O)CO2)N1CCN(c2ccccn2)CC1`: 639 s. With `CCCCN(C(=O)C1CC1)C1CCS(=O)(=O)C1` (centres undefined), the RP-LC retention time worked out at 665 s. Compound `Cc1ccc(C)c(-c2cc3c(=O)n(Cc4nc(-c5ccc(F)cc5)no4)ncn3n2)c1` gave an RP-LC retention time of 1210 s. `Cc1nc2nc(-c3ccc(C(C)(C)C)cc3)nn2c(C)c1CC(=O)N1CCN(C)CC1` displayed an RP-LC retention time of 682 s.

With `CC(C)n1c(=O)sc2cc(S(=O)(=O)N3CCC(C(=O)N4CCCC4)CC3)ccc21`, the RP-LC retention time came to 809 s. In turn, `O=C(NCc1cccs1)C1CC(=O)N(c2ccc3c(c2)CCN3C(=O)C2CC2)C1` (centres undefined) displayed an RP-LC retention time of 710 s.

`Cc1ccc(NC(=O)Cn2nc(N3CCCC3)c3ccccc3c2=O)cc1Cl` returned an RP-LC retention time of 1060 s. `COc1ccc(-c2nc(NCc3cccnc3)c3ccccc3n2)cc1` gave an RP-LC retention time of 574 s. Compound `CNC(=O)c1ccsc1NC(=O)c1ccc(Cl)s1` returned an RP-LC retention time of 882 s. In the case of `O=c1ccn(-c2cccc(F)c2)nc1-c1nc(-c2cccc(Br)c2)no1` it was 995 s; in that of `Cc1cc(C)n2c(Nc3c(C)cccc3C)c(-c3ccc(O)cc3)nc2n1`, 646 s; in that of `CCOc1ccc(OCC)c(NC(=O)CN2C(=O)C(C)(C)c3ccccc32)c1`, 1090 s. In the case of `O=C(NCCCN1CCCCC1)C1CCCN(c2ncc(-c3ccc(F)cc3)cn2)C1` (centres undefined), the RP-LC retention time was found to be 684 s.

Compound `O=C(Cn1cnc(-c2nc(-c3ccccc3)cs2)c1)Nc1ccc(F)cc1F` displayed an RP-LC retention time of 744 s. As to `COc1cccc(-c2csc(CN3CCNCC3)n2)c1`, the RP-LC retention time is 566 s.

The compound `CCc1ccc(OCC(O)Cn2c(C3CC3)nc3ccccc32)cc1` (centres undefined) registered an RP-LC retention time of 739 s.

`O=C(NCCc1ccccc1)N1CCc2nc[nH]c2C1` returned an RP-LC retention time of 575 s. In the case of `O=C(Nc1nccs1)c1ccc([N+](=O)[O-])cc1Cl` it was 722 s; in that of `COc1ccc(C2C(C)C(=O)C(C)C(c3ccc(OC)cc3)N2N=O)cc1` (centres undefined), 1000 s; in that of `O=C(NCC(c1cccnc1)N1CCc2ccccc21)C(=O)Nc1ccccc1[N+](=O)[O-]` (centres undefined), 702 s. In turn, `Cc1sc2ccn(CC(C)C)c(=O)c2c1C(=O)NCc1ccccc1` came in with an RP-LC retention time of 930 s. `CO[C@H]1CN(C2CCN(S(=O)(=O)Cc3ccccc3)CC2)[C@H]1c1ccncc1`: the RP-LC retention time came to 612 s.

The values are drawn from the METLIN SMRT retention time set (Domingo-Almenara et al. 2019).
